Where “and” joins values, the source holds several entries; their conditions need not be identical. Equal entries are not always repeated.
Legend:
[1] = test system: WiDr; assay: In vitro cytotoxicity against man colon carcinoma line WiDr cell lines transfected with Escherichia coli B nitroreductase (NTR); assay type: functional, cell-based; conditions: Homo sapiens
[2] = test system: SK-OV-3; assay: In vitro cytotoxicity against SKOV-3 cells in the presence of 1 mM NADH co-factor and 1 ug/mL Escherichia coli B nitroreductase (NTR); assay type: functional, cell-based; conditions: Homo sapiens
[3] = Oxygen dependence of cytotoxicity was assessed by clonogenic assay using stirred suspension cultures of ERCC-1 mutant UV4 cells after 8 hr under aerobic conditions; assay type: functional, Cricetulus griseus
[4] = test system: T78-1; assay: In vitro cytotoxicity against Chinese hamster V79-derived cell line T78-1 transfected with Escherichia coli B nitroreductase (NTR); assay type: functional, cell-based; conditions: Cricetulus griseus
[5] = Oxygen dependence of cytotoxicity was assessed by clonogenic assay using stirred suspension cultures of ERCC-1 mutant UV4 cells after 3h under aerobic conditions; assay type: functional, Cricetulus griseus
[6] = test system: SK-OV-3; assay: In vitro cytotoxicity against SKOV-3 cells in the presence of 1 mM NADH co-factor; assay type: functional, cell-based; conditions: Homo sapiens
[7] = Oxygen dependence of cytotoxicity was assessed by clonogenic assay using stirred suspension cultures of ERCC-1 mutant UV4 cells after 8 hr under anoxic conditions; assay type: functional, Cricetulus griseus
[8] = (§1) Ratio of cytotoxicities against WiDr cell line to NTR transfectant; assay type: functional
[9] = Oxygen dependence of cytotoxicity was assessed by clonogenic assay using stirred suspension cultures of AA8 cells after 3h under anoxic conditions; assay type: functional, Cricetulus griseus, CHO-AA8
[10] = test system: SK-OV-3; assay: In vitro cytotoxicity against SKOV-3 cells in the absence of co-factor; assay type: functional, cell-based; conditions: Homo sapiens
[11] = Ratio of cytotoxicities against T78-1 cell line to NTR transfectant; assay type: functional
[12] = Oxygen dependence of cytotoxicity was assessed by clonogenic assay using stirred suspension cultures of ERCC-1 mutant UV4 cells after 3h under anoxic conditions; assay type: functional, Cricetulus griseus
[13] = Oxygen dependence of cytotoxicity was assessed by clonogenic assay using stirred suspension cultures of AA8 cells after 3h under aerobic conditions; assay type: functional, Cricetulus griseus, CHO-AA8
[14] = Ratio of cytotoxicities against SKOV-3 cell line to NTR transfectant; assay type: functional, SK-OV-3
[15] = Ratio of cytotoxicity against SKOV-3 cells in the absence of co-factor to the cytotoxicity in the presence of co-factor and NTR; assay type: functional, SK-OV-3
[16] = Ratio of oxygen dependence of cytotoxicities of UV4 cells in aerobic condition to anoxic condition; assay type: functional
[17] = test system: WiDr; assay: as §1; assay type: functional, Homo sapiens
[18] = Oxygen dependence of cytotoxicity was assessed by clonogenic assay using stirred suspension cultures of AA8 cells after 1 hr under anoxic conditions; assay type: functional, Cricetulus griseus, CHO-AA8
[19] = Oxygen dependence of cytotoxicity was assessed by clonogenic assay using stirred suspension cultures of ERCC-1 mutant UV4 cells after 1 hr under aerobic conditions; assay type: functional, Cricetulus griseus
[20] = Oxygen dependence of cytotoxicity was assessed by clonogenic assay using stirred suspension cultures of AA8 cells after 4 hr under anoxic conditions; assay type: functional, Cricetulus griseus, CHO-AA8
[21] = Oxygen dependence of cytotoxicity was assessed by clonogenic assay using stirred suspension cultures of ERCC-1 mutant UV4 cells after 4 hr under aerobic conditions; assay type: functional, Cricetulus griseus
[22] = Oxygen dependence of cytotoxicity was assessed by clonogenic assay using stirred suspension cultures of AA8 cells after 1 hr under aerobic conditions; assay type: functional, Cricetulus griseus, CHO-AA8
[23] = Oxygen dependence of cytotoxicity was assessed by clonogenic assay using stirred suspension cultures of ERCC-1 mutant UV4 cells after 4 hr under anoxic conditions; assay type: functional, Cricetulus griseus
[24] = Oxygen dependence of cytotoxicity was assessed by clonogenic assay using stirred suspension cultures of AA8 cells after 4 hr under aerobic conditions; assay type: functional, Cricetulus griseus, CHO-AA8
[25] = Oxygen dependence of cytotoxicity was assessed by clonogenic assay using stirred suspension cultures of ERCC-1 mutant UV4 cells after 1 hr under anoxic conditions; assay type: functional, Cricetulus griseus
[26] = Ratio of oxygen dependence of cytotoxicities of AA8 cells in aerobic condition to anoxic condition; assay type: functional, Cricetulus griseus, CHO-AA8
[27] = test system: SK-OV-3; assay: In vitro for cytotoxicity against SKOV-3 cells in the presence of 1 mM NADH co-factor and 1 ug/mL Escherichia coli B nitroreductase (NTR); assay type: functional, cell-based; conditions: Homo sapiens
[28] = test system: SK-OV-3; assay: In vitro for cytotoxicity against SKOV-3 cells in the presence of 1 mM NADH co-factor; assay type: functional, cell-based; conditions: Homo sapiens

`O=C(OCc1ccc([N+](=O)[O-])cc1)N1c2ccccc2[C@@]23O[C@]24CCC[C@H]3C#C/C=C\C#C[C@H]14` showed an IC50 [1] of 8.4 µM, an IC50 [2] of 0.26 µM and a C10 air [3] of 70 µM. The IC50 [4] was 11.1 µM, the C10 air [5] was greater than 100 µM and the IC50 [6] was greater than 20 µM. For the same compound, the “C10 N2” value [7] was 70 µM, the Selectivity [8] was 97 and the “C10 N2” value [9] was greater than 100 µM. For the same compound, the IC50 [10] was 20.4 µM, the Selectivity [11] was 54 and the “C10 N2” value [12] was greater than 100 µM. The C10 air [13] was greater than 100 µM, the Selectivity [14] was 264 and the Selectivity [15] was 95.9. The ratio [16] was 1.

`O=C(OCc1ccc([N+](=O)[O-])cc1)N1c2ccc(OCCO)cc2[C@@]23O[C@]24CCC[C@H]3C#C/C=C\C#C[C@H]14` gave an IC50 [1] of 1.81 µM, an IC50 [2] of 0.039 µM and an IC50 [4] of 2.4 µM. The Selectivity [17] was 135, the “C10 N2” value [18] was greater than 100 µM and the C10 air [19] was 40 µM. For the same compound, the IC50 [6] was 0.5 µM, the “C10 N2” value [20] was greater than 100 µM and the IC50 [10] was 0.5 µM. For the same compound, the Selectivity [11] was 111, the C10 air [21] was 11 µM and the C10 air [22] was 75 µM. The “C10 N2” value [23] was 12 µM, the Selectivity [14] was 21.3 and the Selectivity [15] was 13. For the same compound, the C10 air [24] was 22 µM, the “C10 air/C10 N2” value [16] was 1.5 and 1.1 and the “C10 N2” value [25] was 60 µM.

Work on `O=C(OCc1ccccc1[N+](=O)[O-])N1c2ccccc2[C@@]23O[C@]24CCC[C@H]3C#C/C=C\C#C[C@H]14` yielded an IC50 [1] greater than 20 µM, an IC50 [2] greater than 20 µM and an IC50 [4] of 8.9 µM. For the same compound, the “C10 air/C10 N2” value [26] was greater than 1.7, the C10 air [5] was 140 µM and the IC50 [6] was greater than 20 µM. For the same compound, the “C10 N2” value [9] was 200 µM, the IC50 [10] was greater than 20 µM and the Selectivity [11] was 1.9. For the same compound, the “C10 N2” value [12] was 53 µM, the C10 air [13] was 120 µM and the “C10 air/C10 N2” value [16] was 0.4.

In the case of `NC(=O)c1cc(N2CC2)c([N+](=O)[O-])cc1[N+](=O)[O-]` [TRETAZICAR], the IC50 [1] is reported as 565 µM, the IC50 [27] is reported as 1.01 µM and the Selectivity [8] is reported as 51. It also gave a Selectivity [11] of 1630, a Selectivity [14] of 357 and an IC50 [28] of 0.76 µM. It also gave a Selectivity [15] of 183.

— ChEMBL document CHEMBL1132517, “Nitrobenzyl carbamate prodrugs of enediynes for nitroreductase gene-directed enzyme prodrug therapy (GDEPT)” (Bioorg Med Chem Lett, 1999)
